Reference: patent US20190203254A1, “CORTICAL NEURON CELL MODEL OF ALZHEIMER'S DISEASE BASED ON BMI1 DEFICIENCY, AND USES THEREOF” (9636137 Canada Inc., priority 2016, published 2019)

Tests used:
[1] = test system: shBMI1 neurons; assay: Confocal immunofluorescence for oligomeric amyloid (NU1) and Ab42 (PA3) in shBMI1 neurons treated with BSI (FIG. 3G); type: cell-based, human; details: BSI vs vehicle control
Description: (§1) FIG. 3 is a panel with pictures and graphs illustrating that BMI1 deficiency in neurons results in p-Tau and amyloid accumulation. FIG. 3A: p-Tau (PHF1) accumulation in shBMI1 neurons but not in shCTL neurons (day 14). Scale bar: 40 mm. FIG. 3B: p-Tau (PHF1) accumulation in broken axonal segments of glutamatergic shBMl1 neurons (arrows), and co-localization of p-Tau with vGLUT1 in axonal swellings (arrows in the inset). Scale bar: 40 mm. FIG. 3C: Quantification of PHF1-positive neurons and of p-Tau foci/axon in shCTL (n=3) and shBMI1 (n=3) cultures. All values are mean±SEM. (*) P<0.05; (**) P<0.01 by Student's unpaired t-test. FIG. 3D: Confocal immunofluorescence for the apoptosis marker activated caspase-3 in shCTL and shBMl1 cultures. Scale bar: 40 mm. FIG. 3E: Quantification of activated caspase-3 positive cells in GABA+ and GABA− neuronal populations. All values are mean±SEM. (*) P<0.05 by Student's unpaired t-test. FIG. 3F: Amyloid accumulation in shBMl1 neurons as compared to shCTL neurons using the MOAB2 or PA3 antibodies. Scale bars: 40 mm. FIG. 3G: Confocal immunofluorescence for oligomeric amyloid (NU1) and Ab42 (PA3) of shCTL and shBMI1 neurons treated with beta-secretase inhibitor (BSI) or vehicle control. FIG. 3H: Intracellular and extracellular Ab42 levels in shCTL (n=3) and shBMl1 (n=3) neurons by ELISA. […]

[2] = test system: shBMI1 neurons; assay: Ab42 levels by ELISA in shBMI1 neurons treated with BSI (FIG. 3H); type: cell-based, human; details: BSI vs vehicle control
Description: as §1

[3] = test system: shBMI1 neurons; type: cell-based, human
Description: FIG. 5 is a panel with pictures and graphs illustrating that BMI1 deficiency in neurons results in activation of MAPT, GSK3b and p53. FIG. 5A: Immunoblots for AD-related proteins in shCTL, shBMI1 and BMI1 overexpressing (BMI1 OE) neurons. Protein expression ratios were established using Ponceau staining and where expression in shCTL neurons was set as 1. FIG. 5B: Confocal analysis of F-Actin (phalloidin), amyloid (PA3), p-Tau (PHF1) and activated caspase-3 (Casp3a) in shBMI1 neurons treated with DMSO, β-secretase inhibitor (BSI), γ-secretase inhibitor (GSI) or y-secretase modulator (GSM). Quantification was established using shCTL neurons set as 1. Scale bar: 40 μm.
Human embryonic stem cells were differentiated into cortical neurons. The differentiation protocol was based on a previous study (Espuny-Camacho, I., et al., Pyramidal neurons derived from human pluripotent stem cells integrate efficiently into mouse brain circuits in vivo. Neuron 77, 440-456, (2013)). However, the Noggin agonist LDN193189 was used to reduce recombinant Noggin concentration. The H9 (WiCell™) and HUES9 (Harvard Stem Cell Institute) cell lines were dissociated using Accutase™ (Innovative Cell Technology #AT-104) and platted on growth factor reduced Matrigel™ (Corning #356231) in PeproGrow™ hES cell media (PeproTech #BM-hESC) supplemented with ROCK™ inhibitor (Y-27632; 10 μM, Cayman Chemical #10005583). Upon 70% of confluency, the media was changed to DDM supplemented with B27 (1× final), Noggin (10 ng/ml, PeproTech #120-10C) and LDN193189 (0.5 μM; Sigma #SML0559). The medium was changed every day. After 16 days of differentiation, the medium was changed to DDM/B27 and replenished every day. At day 24, neural progenitors were manually detached from the plate and mixed with lentiviral supernatant for 30 min at 37° C. Infected neural progenitors were subsequently mixed in DDM/B27 supplemented with ROCK™ inhibitor (Y-27632; 10 μM) and platted on growth factor reduced Matrigel™ coated plates or chamber slides (LabTek™ #154534). Five days after the dissociation/infection, half of the medium was changed for Neurobasal™ A media supplemented with B27 (1× final) and changed again every three days. For 3D cultures, neural progenitors at day 24 were mixed with ice-cold growth factor reduced Matrigel™ (1:20 dilution) and plated onto 8-well chamber slides. After 30 min of incubation at 37° C., fresh Neurobasal™ A/B27 were added.
Sequence-specific oligonucleotides stretch shRNA designed to target the BMI-1 ORF (accession No.: BC011652): were synthetized. Oligo#1 (nt 1061-1081) 5′-CCTAATACT TTCCAGATTGAT-3′ (SEQ ID NO: 3) and oligoScramble (nt 573-591) 5′-GGTACTTCATTGATGCCAC-3′ (SEQ ID NO: 4) were used in this study. These sequences are followed by the loop sequence (TTCAAGAGA) (SEQ ID NO: 5) and finally the reverse complements of the targeting sequences. The double stranded shRNA sequences were cloned downstream of the H1P promoter of the H1 P-UbqC-HygroEGFP plasmid using Age1, SmaI, and XbaI cloning sites. The shRNA-expressing lentiviral plasmids were cotransfected with plasmids pCMVdR8.9 and pHCMV-G into 293FT packaging cells using Lipofectamin™ (Invitrogen) according to the manufacturers instructions. Viral containing media were collected, filtered, and concentrated by ultracentrifugation. Viral titers were measured by serial dilution on 293T cells followed by microscopic analysis 48 hr later. For viral transduction, lentiviral vectors were added to dissociated cells prior to plating. […]

[4] = test system: sAD patients; details: tested and abandoned in 2014 {De Strooper; cited from earlier work
[5] = BMI1-deficient neurons, working concentration BSI 1 μM, GSI 0.5 μM, GSM 30 μM, FIG. 5B

amyloid immuno-reactivity (PA3) / C99/amyloid accumulation [3, 5] | p-Tau (PHF1) immuno-reactivity / intensity [3, 5] | most pathological parameters ([3]; BMI1-deficient neurons, working concentration GSI 0.5 μM, GSM 30 μM, FIG. 5B) | Structure (SMILES) | amyloid immunoreactivity (antibodies against Ab42) [1] | amyloid (Ab42) concentration by ELISA [2] | toxicity for BMI1-knockdown human cortical neurons [3] | p-Tau localization ([3]; BMI1-deficient neurons, GSI 0.5 μM, FIG. 5B) | neuro-toxicity in sAD patients [4]
– | – | – | C[C@@H](NC(=O)c1cc(C(=O)N[C@@H](Cc2ccccc2)[C@H](O)CNC2CC2)cc(N(C)S(C)(=O)=O)c1)c1ccccc1 [BSI, BSI-IV] | highly reduced | normalized | – | – | –
reached saturation levels | reduced | did not improve | C[C@H](NC(=O)Cc1cc(F)cc(F)c1)C(=O)N[C@H](C(=O)OC(C)(C)C)c1ccccc1 [GSI, DAPT] | – | – | toxic | re-localization of p-Tau to the neuronal soma suggested tangle formation | high
